In the NIST ThermoML archive (doi:10.1016/j.tca.2013.10.024):
“And” between values parts separate entries of the source, which are not always exact repeats. Equal entries are not always repeated. ± gives the expanded uncertainty stated by the source.

Settings: Crystal, Calculated from knudsen effusion weight loss

O=S(=O)([O-])[O-].[K+].[K+] [potassium sulfate]
Settings | vapor or sublimation pressure
1193 K | 2.255e-05 ± 4.6e-06 kPa
1201 K | 4.069e-05 ± 8.3e-06 kPa
1202 K | 3.268e-05 ± 6.6e-06 kPa
1207 K | 5.831e-05 ± 1.2e-05 kPa
1212 K | 4.467e-05 ± 9.1e-06 kPa
1214 K | 4.592e-05 ± 9.3e-06 kPa and 5.841e-05 ± 1.2e-05 kPa
1218 K | 4.274e-05 ± 8.7e-06 kPa
1221 K | 7.584e-05 ± 1.5e-05 kPa
1223 K | 9.497e-05 ± 1.9e-05 kPa
1224 K | 6.12e-05 ± 1.2e-05 kPa
1225 K | 5.984e-05 ± 1.2e-05 kPa
1226 K | 7.236e-05 ± 1.5e-05 kPa
1227 K | 0.0001197 ± 2.4e-05 kPa
1228 K | 0.0001335 ± 2.7e-05 kPa and 9.75e-05 ± 2e-05 kPa
1233 K | 6.173e-05 ± 1.3e-05 kPa
1235 K | 6.966e-05 ± 1.4e-05 kPa and 0.0001125 ± 2.3e-05 kPa
1238 K | 0.000154 ± 3.1e-05 kPa and 7.448e-05 ± 1.5e-05 kPa
1239 K | 0.000181 ± 3.7e-05 kPa and 0.0001288 ± 2.6e-05 kPa
1240 K | 9.576e-05 ± 1.9e-05 kPa
1241 K | 0.0001668 ± 3.4e-05 kPa
1243 K | 0.0002943 ± 6e-05 kPa and 0.0001001 ± 2e-05 kPa
1244 K | 0.000186 ± 3.8e-05 kPa [middle of 4 runs]
1245 K | 0.0001671 ± 3.4e-05 kPa
1246 K | 0.0001915 ± 3.9e-05 kPa and 0.0001729 ± 3.5e-05 kPa
1247 K | 0.0002093 ± 4.3e-05 kPa
1248 K | 0.0002174 ± 4.4e-05 kPa and 0.0001453 ± 3e-05 kPa
1253 K | 0.0001091 ± 2.2e-05 kPa
1254 K | 0.0001949 ± 4e-05 kPa
1255 K | 0.0002829 ± 5.7e-05 kPa and 0.0001188 ± 2.4e-05 kPa
1258 K | 0.000281 ± 5.7e-05 kPa and 0.0003264 ± 6.6e-05 kPa
1259 K | 0.0001516 ± 3.1e-05 kPa and 0.0002187 ± 4.4e-05 kPa and 0.0003679 ± 7.5e-05 kPa
1260 K | 0.0001623 ± 3.3e-05 kPa and 0.0004471 ± 9.1e-05 kPa
1263 K | 0.0002656 ± 5.4e-05 kPa
1264 K | 0.0005652 ± 0.00011 kPa and 0.0002789 ± 5.7e-05 kPa
1265 K | 0.0003443 ± 7e-05 kPa and 0.0002937 ± 6e-05 kPa
1267 K | 0.0005201 ± 0.00011 kPa and 0.0003602 ± 7.3e-05 kPa
1268 K | 0.0003503 ± 7.1e-05 kPa [middle of 4 runs]
1269 K | 0.0001536 ± 3.1e-05 kPa
1271 K | 0.0003904 ± 7.9e-05 kPa
1272 K | 0.0005138 ± 0.0001 kPa and 0.0005765 ± 0.00012 kPa and 0.0003016 ± 6.1e-05 kPa
1273 K | 0.0001617 ± 3.3e-05 kPa and 0.0001919 ± 3.9e-05 kPa
1275 K | 0.0006554 ± 0.00013 kPa
1276 K | 0.0003422 ± 7e-05 kPa
1277 K | 0.000463 ± 9.4e-05 kPa
1280 K | 0.0004126 ± 8.4e-05 kPa
1281 K | 0.0005285 ± 0.00011 kPa and 0.0002784 ± 5.7e-05 kPa
1282 K | 0.000452 ± 9.2e-05 kPa
1283 K | 0.0007481 ± 0.00015 kPa [middle of 5 runs]
1286 K | 0.0004333 ± 8.8e-05 kPa
1288 K | 0.0005671 ± 0.00012 kPa and 0.0005922 ± 0.00012 kPa and 0.0005203 ± 0.00011 kPa
1290 K | 0.0009328 ± 0.00019 kPa and 0.0004622 ± 9.4e-05 kPa
1292 K | 0.000853 ± 0.00017 kPa and 0.0003739 ± 7.6e-05 kPa and 0.0005323 ± 0.00011 kPa
1296 K | 0.0006593 ± 0.00013 kPa and 0.0005992 ± 0.00012 kPa
1297 K | 0.001092 ± 0.00023 kPa
1300 K | 0.0007532 ± 0.00015 kPa [middle of 4 runs]
1301 K | 0.0007786 ± 0.00016 kPa
1302 K | 0.0004586 ± 9.3e-05 kPa and 0.0006547 ± 0.00013 kPa
1303 K | 0.0003659 ± 7.4e-05 kPa
1304 K | 0.0006238 ± 0.00013 kPa
1305 K | 0.0008515 ± 0.00017 kPa [middle of 4 runs]
1306 K | 0.001457 ± 0.00031 kPa
1308 K | 0.0009057 ± 0.00018 kPa
1309 K | 0.0005351 ± 0.00011 kPa and 0.000795 ± 0.00016 kPa
1311 K | 0.001559 ± 0.00033 kPa
1313 K | 0.001473 ± 0.00032 kPa
1314 K | 0.001 ± 0.0002 kPa and 0.0008818 ± 0.00018 kPa
1315 K | 0.0006036 ± 0.00012 kPa
1317 K | 0.000929 ± 0.00019 kPa
1318 K | 0.000916 ± 0.00019 kPa and 0.0006586 ± 0.00013 kPa
1320 K | 0.001024 ± 0.00022 kPa
1325 K | 0.001188 ± 0.00025 kPa and 0.001093 ± 0.00023 kPa
1326 K | 0.0008296 ± 0.00017 kPa
1330 K | 0.0008553 ± 0.00017 kPa and 0.001278 ± 0.00027 kPa
1332 K | 0.001415 ± 0.0003 kPa
1334 K | 0.00134 ± 0.00029 kPa
1335 K | 0.001459 ± 0.00031 kPa
1336 K | 0.001412 ± 0.0003 kPa
1341 K | 0.001475 ± 0.00032 kPa
1343 K | 0.001564 ± 0.00034 kPa
1347 K | 0.001721 ± 0.00037 kPa
1349 K | 0.001744 ± 0.00038 kPa
1352 K | 0.001919 ± 0.00041 kPa
1355 K | 0.001941 ± 0.00042 kPa
1359 K | 0.002022 ± 0.00044 kPa
